Experimental data reported in ChEMBL document CHEMBL1201862, “PubChem BioAssay data set” (2004).
Calls of active or inactive are those of the source.

How the values were obtained:
[1] = target: T1, 1-phosphatidylinositol 4,5-bisphosphate phosphodiesterase beta-3 (Homo sapiens, UniProt Q01970); experiment: Fluorescence-based biochemical high throughput dose response assay to identify inhibitors of phospholipase C isozymes (PLC-B3).
T1 sequence (Q01970 whole entry): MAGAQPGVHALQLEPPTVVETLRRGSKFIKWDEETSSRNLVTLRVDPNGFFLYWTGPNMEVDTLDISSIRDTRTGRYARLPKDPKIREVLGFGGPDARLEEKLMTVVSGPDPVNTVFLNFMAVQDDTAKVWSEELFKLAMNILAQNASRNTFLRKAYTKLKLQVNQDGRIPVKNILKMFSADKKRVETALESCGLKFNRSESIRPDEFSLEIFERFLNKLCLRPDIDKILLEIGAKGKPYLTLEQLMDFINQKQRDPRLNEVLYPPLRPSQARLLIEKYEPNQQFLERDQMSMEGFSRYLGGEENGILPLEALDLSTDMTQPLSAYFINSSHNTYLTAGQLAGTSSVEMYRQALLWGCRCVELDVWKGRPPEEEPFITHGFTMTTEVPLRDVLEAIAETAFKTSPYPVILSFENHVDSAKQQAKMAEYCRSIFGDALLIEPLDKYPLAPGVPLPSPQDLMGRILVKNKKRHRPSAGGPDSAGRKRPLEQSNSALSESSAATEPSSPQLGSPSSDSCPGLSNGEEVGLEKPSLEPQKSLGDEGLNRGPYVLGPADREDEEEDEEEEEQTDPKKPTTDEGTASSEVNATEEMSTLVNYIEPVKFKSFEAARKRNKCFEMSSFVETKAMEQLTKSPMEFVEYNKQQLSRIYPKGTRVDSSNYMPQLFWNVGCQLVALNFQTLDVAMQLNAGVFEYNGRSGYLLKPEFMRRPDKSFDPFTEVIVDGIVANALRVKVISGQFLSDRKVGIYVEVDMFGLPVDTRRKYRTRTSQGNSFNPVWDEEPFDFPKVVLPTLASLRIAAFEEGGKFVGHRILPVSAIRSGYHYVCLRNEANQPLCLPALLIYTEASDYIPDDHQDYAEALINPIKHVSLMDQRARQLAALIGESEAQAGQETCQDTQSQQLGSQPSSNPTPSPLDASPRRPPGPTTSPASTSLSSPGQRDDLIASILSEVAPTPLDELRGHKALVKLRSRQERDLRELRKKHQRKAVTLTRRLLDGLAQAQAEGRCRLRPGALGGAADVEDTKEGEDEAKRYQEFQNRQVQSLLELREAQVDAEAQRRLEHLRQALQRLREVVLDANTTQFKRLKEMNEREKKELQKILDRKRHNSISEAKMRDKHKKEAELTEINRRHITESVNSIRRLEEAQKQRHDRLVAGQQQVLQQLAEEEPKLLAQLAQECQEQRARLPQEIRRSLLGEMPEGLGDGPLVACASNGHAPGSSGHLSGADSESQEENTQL

[2] = target: T2, 1-phosphatidylinositol 4,5-bisphosphate phosphodiesterase gamma-1 (Homo sapiens, UniProt P19174); experiment: Counterscreen for inhibitors of phospholipase C isozymes (PLC-B3): Fluorescence-based biochemical high throughput dose response assay to identify inhibitors of phospholipase C isozymes (PLC-gamma1).
T2 sequence (P19174 whole entry): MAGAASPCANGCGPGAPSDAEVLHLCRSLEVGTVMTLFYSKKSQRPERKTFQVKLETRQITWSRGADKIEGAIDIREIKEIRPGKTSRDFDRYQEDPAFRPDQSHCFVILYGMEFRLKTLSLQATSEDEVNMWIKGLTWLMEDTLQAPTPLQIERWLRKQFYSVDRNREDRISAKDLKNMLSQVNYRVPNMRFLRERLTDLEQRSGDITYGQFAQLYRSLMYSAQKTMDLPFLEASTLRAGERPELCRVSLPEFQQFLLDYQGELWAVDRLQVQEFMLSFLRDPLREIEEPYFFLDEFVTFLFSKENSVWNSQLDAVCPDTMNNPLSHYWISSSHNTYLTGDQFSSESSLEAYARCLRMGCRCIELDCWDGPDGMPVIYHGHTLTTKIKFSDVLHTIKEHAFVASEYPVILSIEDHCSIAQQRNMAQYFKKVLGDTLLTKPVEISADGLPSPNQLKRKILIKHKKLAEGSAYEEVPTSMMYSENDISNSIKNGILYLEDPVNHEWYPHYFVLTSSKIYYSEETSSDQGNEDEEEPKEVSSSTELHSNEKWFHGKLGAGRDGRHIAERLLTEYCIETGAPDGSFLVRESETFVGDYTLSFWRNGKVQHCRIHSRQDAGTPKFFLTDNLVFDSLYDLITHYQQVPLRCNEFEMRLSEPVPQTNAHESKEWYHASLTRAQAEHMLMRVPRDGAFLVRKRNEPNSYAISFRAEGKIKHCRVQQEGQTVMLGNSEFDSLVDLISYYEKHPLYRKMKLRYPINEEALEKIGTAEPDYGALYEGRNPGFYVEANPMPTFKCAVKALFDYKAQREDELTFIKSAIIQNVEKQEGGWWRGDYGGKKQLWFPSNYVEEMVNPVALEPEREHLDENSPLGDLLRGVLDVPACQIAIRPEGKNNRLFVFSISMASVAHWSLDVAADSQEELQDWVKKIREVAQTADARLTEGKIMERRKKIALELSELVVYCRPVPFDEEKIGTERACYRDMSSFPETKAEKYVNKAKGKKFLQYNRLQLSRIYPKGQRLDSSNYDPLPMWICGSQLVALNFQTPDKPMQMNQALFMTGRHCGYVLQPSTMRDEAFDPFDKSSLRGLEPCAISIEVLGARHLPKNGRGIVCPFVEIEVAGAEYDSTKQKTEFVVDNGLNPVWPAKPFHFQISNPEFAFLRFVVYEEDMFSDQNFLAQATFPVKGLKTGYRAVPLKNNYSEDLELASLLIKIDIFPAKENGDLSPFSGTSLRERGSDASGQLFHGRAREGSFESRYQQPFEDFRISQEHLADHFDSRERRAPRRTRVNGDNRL

[3] = cytotoxicity toward Colo320 cells – cell-based, CellTiter-Glo luminescence, IC50, dose response (AID 1117334); format: functional; conditions: COLO 320
[4] = CellTiter-Glo luminescent dose response of DLD-1 viability loss (AID 1117352); format: functional
[5] = cytotoxicity toward HCT116 cells – cell-based, CellTiter-Glo luminescence, IC50, dose response (AID 1117332); format: functional; conditions: HCT-116
[6] = SNU-C1 cell viability reduction, dose response, CellTiter-Glo luminescence (AID 1117323); format: functional, cell-based
[7] = cytotoxicity toward HT-29 cells – cell-based, CellTiter-Glo luminescence, IC50, dose response (AID 1117330); format: functional
[8] = RKO cell viability reduction, dose response, CellTiter-Glo luminescence (AID 1117322); format: functional
[9] = Concentration-dependent survival of SW480 colon cancer line, luminescence detection with CellTiter-Glo, half-maximal inhibitory concentration (AID 1117338); format: functional
[10] = Jurkat T cell cytotoxicity, dose response, cytotoxicity control for P. falciparum gametocyte viability project, luminescence (AID 1117277); format: functional, cell-based;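 further: potency reflects loss of cellular ATP meaning fewer viable cells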
[11] = P. falciparum late gametocyte killing, dose response, luminescence (AID 1117278); format: functional, cell-based;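 further: gametocytes exposed to compound for 24 hours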
[12] = LGR2 antagonists, dose response, cell-based, HEK293, CRE-luciferase reporter, cherry pick, set 2 (AID 743343); format: functional;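 further: transfected cells were stimulated with diluted bursicon conditioned medium after compound addition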
[13] = Luminescence Cell-Based Dose Response HTS to Identify Inhibitors of 5'UTR Stem-Loop Driven Prion Protein mRNA Translation in H4 Neuroglioblastoma Cells. [Related pubchem assays: 1827 (Project Summary), 1813 (Primary HTS)]; format: functional
[14] = inhibitors of SNCA 5'UTR-driven reporter translation, confirmation, H4 neuroglioma cells, luminescence (AID 1988); format: functional, cell-based
Protein skinhead-1 = target: T3, Protein skinhead-1 (Caenorhabditis elegans, UniProt P34707); format: functional
T3 sequence (P34707 whole entry): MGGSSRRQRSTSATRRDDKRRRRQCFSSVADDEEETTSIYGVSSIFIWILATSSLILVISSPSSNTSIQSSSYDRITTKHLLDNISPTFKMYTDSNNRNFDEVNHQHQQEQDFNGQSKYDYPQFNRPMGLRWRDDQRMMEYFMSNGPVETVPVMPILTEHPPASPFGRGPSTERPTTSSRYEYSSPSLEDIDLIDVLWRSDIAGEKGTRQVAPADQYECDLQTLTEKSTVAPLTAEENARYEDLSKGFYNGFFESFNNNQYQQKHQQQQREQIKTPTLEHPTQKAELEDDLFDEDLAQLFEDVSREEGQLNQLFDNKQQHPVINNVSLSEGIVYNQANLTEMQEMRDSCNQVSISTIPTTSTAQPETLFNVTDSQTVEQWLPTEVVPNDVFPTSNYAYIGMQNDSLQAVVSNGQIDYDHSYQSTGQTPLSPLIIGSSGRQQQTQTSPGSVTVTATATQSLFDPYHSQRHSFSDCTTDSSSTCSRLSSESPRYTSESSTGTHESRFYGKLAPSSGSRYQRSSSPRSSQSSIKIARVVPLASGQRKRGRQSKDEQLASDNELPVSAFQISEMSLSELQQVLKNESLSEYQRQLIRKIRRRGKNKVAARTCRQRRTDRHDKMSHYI

[15] = MC4R antagonists, dose response, counter-screen for LGR2 antagonist project, cell-based, plate reader, cherry pick (AID 743444); format: functional;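 further: transfected HEK 293 cells stimulated with alpha-MSH peptide; potency of inhibitors of the alpha-MSH evoked signal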
[16] = HepG2 cell cytotoxicity, dose response, cytotoxicity control, plate reader, cherry-pick, antagonist series (AID 743416); format: functional, cell-based
[17] = HEK293 cell cytotoxicity, dose response, cytotoxicity control, plate reader, cherry-picked samples (AID 743446); format: functional, cell-based
[18] = inhibitors of firefly luciferase expression or activity, dose response, H4 neuroglioma cells, luminescence (AID 1990); format: functional, cell-based
[19] = target: T4, COUP transcription factor 2 (Homo sapiens, UniProt P24468); experiment: Luminescence-based cell-based high throughput dose response assay to identify inhibitors of COUP-TFII (NR2F2).; format: functional;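 further: HEK293 cells transiently cotransfected with COUP-TFII expression vector and reporter; luciferase reporter luminescence driven by COUP-TFII from the pX2-168 reporter plasmid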
T4 sequence (P24468 whole entry): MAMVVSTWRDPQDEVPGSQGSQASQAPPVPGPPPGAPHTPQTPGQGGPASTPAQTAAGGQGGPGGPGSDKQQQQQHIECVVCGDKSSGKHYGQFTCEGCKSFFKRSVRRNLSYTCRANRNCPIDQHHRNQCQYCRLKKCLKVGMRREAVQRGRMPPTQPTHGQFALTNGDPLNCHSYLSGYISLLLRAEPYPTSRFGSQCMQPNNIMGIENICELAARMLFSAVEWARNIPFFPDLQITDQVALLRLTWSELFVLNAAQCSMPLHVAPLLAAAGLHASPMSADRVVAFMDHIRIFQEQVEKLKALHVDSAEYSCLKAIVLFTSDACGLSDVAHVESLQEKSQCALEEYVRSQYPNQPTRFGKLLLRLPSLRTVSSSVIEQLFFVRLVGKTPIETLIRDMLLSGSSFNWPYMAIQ

[20] = A549 cell cytotoxicity, dose response, cytotoxicity control, plate reader, cherry-pick, antagonist series (AID 743412); format: functional, cell-based
Kallikrein-7 = Kallikrein-7 (Homo sapiens, UniProt P49862); experiment: Fluorescence Intensity-based biochemical primary high throughput dose response assay to identify activators of kallikrein-7 (K7) zymogen.
Chain of Kallikrein-7 (P49862 whole entry): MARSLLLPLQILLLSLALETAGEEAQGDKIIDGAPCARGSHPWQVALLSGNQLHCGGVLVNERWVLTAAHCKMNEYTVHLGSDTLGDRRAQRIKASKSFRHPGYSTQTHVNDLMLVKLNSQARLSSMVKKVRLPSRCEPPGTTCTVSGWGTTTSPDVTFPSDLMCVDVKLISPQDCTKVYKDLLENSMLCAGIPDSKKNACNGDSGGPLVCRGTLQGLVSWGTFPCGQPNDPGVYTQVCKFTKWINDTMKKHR

Paired box protein Pax-8 = Paired box protein Pax-8 (Homo sapiens, UniProt Q06710); experiment: inhibitors of PAX8-driven TPO luciferase reporter, dose response, RMG-I cells, cherry-pick (AID 687027); format: functional, cell-based;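 further: luciferase reporter driven by Pax8 target thyroperoxidase promoter measured by SteadyGlo luminescence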
Chain of Paired box protein Pax-8 (Q06710 whole entry, the tested form may be a part): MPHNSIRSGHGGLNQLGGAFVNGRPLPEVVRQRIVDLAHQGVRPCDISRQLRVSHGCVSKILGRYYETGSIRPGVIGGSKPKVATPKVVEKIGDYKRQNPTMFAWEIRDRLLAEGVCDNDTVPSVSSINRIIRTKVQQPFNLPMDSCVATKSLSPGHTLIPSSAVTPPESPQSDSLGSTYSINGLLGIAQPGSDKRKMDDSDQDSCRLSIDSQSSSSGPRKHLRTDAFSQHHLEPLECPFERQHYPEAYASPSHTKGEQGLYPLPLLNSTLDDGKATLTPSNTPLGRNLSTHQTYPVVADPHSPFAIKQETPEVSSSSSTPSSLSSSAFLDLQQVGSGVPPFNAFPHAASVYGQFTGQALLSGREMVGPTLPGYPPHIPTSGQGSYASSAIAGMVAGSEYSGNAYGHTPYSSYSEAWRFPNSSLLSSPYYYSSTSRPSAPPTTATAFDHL

[21] = Fluorescence-based cell-based high throughput dose response assay for inhibitors of the interaction of nucleotide-binding oligomerization domain containing 2 (NOD2) and the receptor-interacting serine-threonine kinase 2 (RIPK2).; format: functional; conditions: Homo sapiens
[22] = NIH:OVCAR-3 ovarian cancer cell cytotoxicity, dose response, PAX8 inhibitor project, plate reader, dry powder samples (AID 743044); format: functional, cell-based
[23] = A2780 ovarian cancer cell cytotoxicity, dose response, cytotoxicity control, plate reader, dry powder samples (AID 743046); format: functional, cell-based
[24] = cytotoxicity in OVCAR8 ovarian cancer cells, dose response, PAX8 project, cell-based, plate reader, dry powder samples (AID 743197); format: functional; conditions: OVCAR-8

Cc1ccc(S(=O)(=O)Cc2nc(O)c3ccccc3n2)cc1
IC50 [1]: > 123 µM (inactive)
IC50 [2]: > 123 µM (inactive)

CN(CCOc1ccc(CC2SC(=O)NC2=O)cc1)c1ccccn1 (stereo not drawn) [ROSIGLITAZONE]
IC50 [3]: > 20 µM (inactive)
IC50 [4]: > 20 µM (inactive)
IC50 [5]: > 20 µM (inactive)
IC50 [6]: 8.69 µM (inactive)
IC50 [7]: > 20 µM (inactive)
IC50 [8]: > 20 µM (inactive)
IC50 [9]: > 20 µM (inactive)

Cc1ccc(C(=O)N2CCN(S(=O)(=O)c3ccccc3)CC2)cc1
IC50 [10]: > 83.3 µM (inactive)
IC50 [11]: > 109 µM (inactive)

Cc1cc(NC(=O)c2ccccc2)ncc1NC(=O)c1cccs1
IC50 [1]: > 122 µM (inactive)
IC50 [2]: > 122 µM (inactive)

CCCOc1ccc2cc(-c3ccccn3)c(=O)oc2c1
AC50 [12]: 1.48 µM (active)
EC50 [13]: 9.71 µM (active)
EC50 [14]: 2.83 µM (active)
IC50 (Protein skinhead-1): > 100 µM (inactive)
AC50 [15]: 2 µM (active)
AC50 [16]: > 52 µM (inactive)
AC50 [17]: 33.6 µM (active)
EC50 [18]: 2.91 µM (active)

Cn1c2ccccc2c(=O)c2cc(C#CC3(O)CCCCC3)ccc21
IC50 [19]: 12 µM (inactive)

C[C@@H]1CN([C@H](C)CO)C(=O)Cc2cc(NS(=O)(=O)c3ccc(Cl)cc3)ccc2O[C@@H]1CN(C)Cc1ccc(C(F)(F)F)cc1
AC50 [12]: 22.7 µM (active)
AC50 [15]: 20.2 µM (active)
AC50 [16]: 10.4 µM (active)
AC50 [20]: 7.62 µM (active)
AC50 [17]: 15.8 µM (active)

Clc1ccc(-c2cnc3cccnn23)cc1
EC50 (Kallikrein-7): > 69.5 µM (inactive)

CS(=O)(=O)Cc1cc(N2CCCC2)nc(-c2ccccc2)n1
IC50 [10]: > 83.3 µM (inactive)
IC50 [11]: > 109 µM (inactive)

O=C1NC2C(O)C(O)C(O)C(O)C2c2cc3c(c(O)c21)OCO3 (stereo not drawn)
AC50 [12]: 0.362 µM (active)
AC50 [15]: 0.372 µM (active)
AC50 [16]: 0.428 µM (active)
AC50 (Paired box protein Pax-8): < 0.26 µM (active)
AC50 [20]: 0.358 µM (active)
AC50 [17]: 0.321 µM (active)
IC50 [21]: 49.8 µM (inactive)

O=C(COC(=O)CSc1ccc2ccccc2c1)NCc1ccc2c(c1)OCO2
IC50 [10]: > 83.3 µM (inactive)
IC50 [11]: > 109 µM (inactive)

C[C@H]1CCCCO[C@@H](CN(C)Cc2ccc(C(F)(F)F)cc2)[C@@H](C)CN([C@@H](C)CO)C(=O)c2cc(NC(=O)Cc3ccccc3)ccc2O1
AC50 [22]: 11.4 µM (active)
AC50 [23]: 0.963 µM (active)
AC50 (Paired box protein Pax-8): 7.94 µM (active)
AC50 [24]: 30.8 µM (active)
